From patent US5849326A, “Method for treating neuronal diseases via administration of 2-acylaminopropanol derivatives” (Seikagaku Corporation, priority 1993, dated 1998)

Legend:
physchem = settings: physiological saline
GSL = settings: J. Cell. Physiol., vol. 141, pp. 573-583 (1989); cited from earlier work
explants = assay: Neurite-extending activity in explants (Example 6); format: cell-based; settings: cultured for 40 hours, FIG. 5
Description: 1.6×10^5 cells/well of explants were sowed in a plate with 24 wells containing a DMEM medium. […] After the mixture was cultured for 40 hours, the resulting culture was fixed and then dyed with Coomassie, and nervous fibers extended to have a length which was longer than a diameter of […] were counted.

[1] = system: LacCer (lactosylceramide) synthase; assay: Enzyme activity in treated cerebral cortex culture: LacCer synthase; format: cell-based, rat; settings: culture treated with 15 μM for 40 hours
Description: (§1) After the mixture was cultured for 40 hours, the resulting culture was harvested and pulverized in a homogenized buffer (50 mM Hepes, 0.32M sucrose) by using a chip type sonicator to prepare an enzyme source.
GlcCer as an acceptor substrate was reacted with 0.315mM UDP (uridine diphosphate)-^3 H galactose (2.7×10^8 cpm) as a donor substrate. After the mixture containing ^3 H-LacCer which was a reaction product was developed by a silica gel thin layer plate, a portion corresponding to the reaction product was scratched off, and its radioactivity was counted.

[2] = system: primary cultured rat cerebral neurocytes; assay: Ganglioside content (ganglioside-binding sialic acid) of primary cultured neurocytes; format: cell-based; settings: Rattus norvegicus, 72 h, culture for 3 days, control defined as 100%
Description: Rat fetuses at the 18th day of pregnancy were taken out, and forebrain base portions of the fetuses were extracted aseptically and cut into small pieces by scissors. After the pieces were treated with papain (in a phosphate buffer containing 0.02% L-cysteine containing 180 U papain, 0.02% bovine serum albumin and 0.5% glucose, pH 7.4, at 37° C. for 30 minutes), they were washed with a mixed solution (DF medium) of 1:1 of a Dulbecco modified Eagle's medium and a Ham's F12 medium and suspended in a DF medium containing 5% bovine fetal serum and 5% equine serum. This neurocyte suspension was charged into a culture plate with 24 wells (Falcon, Primaria) in an amount of 1×10^6 cells/well. […] After completion of the culture, the cells in the respective wells were washed with a phosphate buffer and recovered by rubber policeman. Further, a ganglioside fraction was extracted by adding chloroform/methanol/water (1:2:0.8) and shaking the mixture for 5 minutes. […] The no addition group (control) which was defined as 100% was compared with the test groups, and the results are shown in Table 1.

GM3 synthase = assay: Enzyme activity in treated cerebral cortex culture: GM3 synthase; format: cell-based, rat; settings: culture treated with 15 μM for 40 hours
Description: as §1
After the mixture containing a reaction product was developed by a reverse phase thin layer plate, a portion corresponding to the reaction product was scratched off, and its radioactivity was counted.

- solubility (physchem): ≤ 500 µg/mL
Structure (SMILES): CCCCCCCCCC(=O)N[C@@H](CN1CCOCC1)[C@@H](O)c1ccccc1 [L-threo-PDMP, 1-phenyl-2-decanoylamino-3-morpholino-1-propanol]
- biosynthesis of GSL (GSL): has possibility of accelerating biosynthesis of GSL
- concentration at which extension of neurites was the largest (explants): 15 µM
- minimal effective concentration (explants; read-out: concentration at which extension of neurites was observed): ≥ 5 µM
- Accelerating activity when enzyme activity of control is defined as 100%: LacCer synthase [1]: 243.3%
- activity at 20 µM [2]: 127%
- Accelerating activity when enzyme activity of control is defined as 100%: GM3 synthase (GM3 synthase): 197.4%
